Where a name gives a salt, the structure may show the parent alone.
target: DPP-4 (Homo sapiens, UniProt P27487); assay: not given; details: cited from earlier work
Sequence (P27487 39-766 limits assumed, species assumed): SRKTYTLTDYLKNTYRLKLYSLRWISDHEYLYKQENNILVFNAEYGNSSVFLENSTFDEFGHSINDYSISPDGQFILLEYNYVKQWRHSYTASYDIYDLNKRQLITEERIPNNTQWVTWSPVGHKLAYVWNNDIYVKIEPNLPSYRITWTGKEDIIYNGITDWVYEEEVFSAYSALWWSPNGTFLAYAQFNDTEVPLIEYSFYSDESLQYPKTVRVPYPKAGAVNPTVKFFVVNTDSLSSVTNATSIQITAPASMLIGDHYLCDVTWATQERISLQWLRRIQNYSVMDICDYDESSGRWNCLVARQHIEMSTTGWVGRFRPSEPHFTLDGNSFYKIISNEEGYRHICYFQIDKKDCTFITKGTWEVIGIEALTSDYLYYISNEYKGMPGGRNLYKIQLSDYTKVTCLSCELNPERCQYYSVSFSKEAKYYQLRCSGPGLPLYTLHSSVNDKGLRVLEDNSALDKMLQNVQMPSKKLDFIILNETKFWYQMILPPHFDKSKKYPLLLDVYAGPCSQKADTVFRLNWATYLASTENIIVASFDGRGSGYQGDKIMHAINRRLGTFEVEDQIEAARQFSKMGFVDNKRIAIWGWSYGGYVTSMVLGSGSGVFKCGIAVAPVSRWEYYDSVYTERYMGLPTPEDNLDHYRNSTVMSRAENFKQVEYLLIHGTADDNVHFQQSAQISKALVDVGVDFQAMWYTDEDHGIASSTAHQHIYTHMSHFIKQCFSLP

Compound | degradation of GRF in plasma to GRF[3-44]
diprotin A | prevented

target: T1, dipeptidyl peptidase-IV enzyme (DPP-4) (Homo sapiens, UniProt P27487); assay: DPP-4 inhibition, continuous fluorometric assay with substrate Gly-Pro-AMC; format: biochemical; details: soluble human DPP-4, 50 μM Gly-Pro-AMC, pH 7.5, room temperature
T1 construct: The enzyme used in these studies was soluble (transmembrane domain and cytoplasmic extension excluded) human protein; made in house; host or cells: baculovirus expression system (Bac-To-Bac, Gibco BRL)
T1 sequence (P27487 29-766 limits assumed): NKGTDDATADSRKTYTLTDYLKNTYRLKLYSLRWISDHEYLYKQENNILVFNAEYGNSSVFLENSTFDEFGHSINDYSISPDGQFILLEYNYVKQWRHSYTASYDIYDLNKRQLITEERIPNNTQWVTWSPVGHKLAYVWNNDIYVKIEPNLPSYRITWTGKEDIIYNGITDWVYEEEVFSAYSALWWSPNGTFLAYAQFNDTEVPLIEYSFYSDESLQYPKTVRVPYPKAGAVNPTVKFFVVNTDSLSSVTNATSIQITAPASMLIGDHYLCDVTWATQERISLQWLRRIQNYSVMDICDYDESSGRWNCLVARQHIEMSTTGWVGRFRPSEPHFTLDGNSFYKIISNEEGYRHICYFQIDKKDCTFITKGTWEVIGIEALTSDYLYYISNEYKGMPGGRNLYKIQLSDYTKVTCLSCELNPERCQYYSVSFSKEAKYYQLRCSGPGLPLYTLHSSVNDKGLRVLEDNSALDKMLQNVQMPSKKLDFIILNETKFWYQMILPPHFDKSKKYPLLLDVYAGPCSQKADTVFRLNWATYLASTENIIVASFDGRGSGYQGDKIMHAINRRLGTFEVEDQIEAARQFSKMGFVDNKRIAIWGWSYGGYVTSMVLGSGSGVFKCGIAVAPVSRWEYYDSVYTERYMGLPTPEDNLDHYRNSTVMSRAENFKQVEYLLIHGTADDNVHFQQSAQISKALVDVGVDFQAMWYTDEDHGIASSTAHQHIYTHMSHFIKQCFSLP
Method: Inhibition constants are determined as follows. A continuous fluorometric assay is employed with the substrate Gly-Pro-AMC, which is cleaved by DPP-4 to release the fluorescent AMC leaving group. […] A typical reaction contains approximately 50 pM enzyme, 50 μM Gly-Pro-AMC, and buffer (100 mM HEPES, pH 7.5, 0.1 mg/mL BSA) in a total reaction volume of 100 μL. Liberation of AMC is monitored continuously in a 96-well plate fluorometer using an excitation wavelength of 360 nm and an emission wavelength of 460 nm. Under these conditions, approximately 0.8 μM AMC is produced in 30 min at 25 degrees C. The enzyme used in these studies was soluble (transmembrane domain and cytoplasmic extension excluded) human protein produced in a baculovirus expression system (Bac-To-Bac, Gibco BRL). […] To measure the dissociation constants for compounds, solutions of inhibitor in DMSO were added to reactions containing enzyme and substrate (final DMSO concentration is 1%). All experiments were conducted at room temperature using the standard reaction conditions described above. To determine the dissociation constants (Ki), reaction rates were fit by non-linear regression to the Michaelis-Menton equation for competitive inhibition. The errors in reproducing the dissociation constants are typically less than two-fold.

IC50 | Compound
12 nM | COC(=O)Cn1cc2c(n1)CN([C@H]1CO[C@H](c3cc(F)c(F)cc3F)[C@@H](N)C1)C2 [Example 10]
9.3 nM | CC(C)(O)Cn1cc2c(n1)CN([C@H]1CO[C@H](c3cc(F)ccc3F)[C@@H](N)C1)C2 [Example 5, 1-{5-[(3R,5S,6R)-5-amino-6-(2,5-difluorophenyl)tetrahydro-2H-pyran-3-yl]-5,6-dihydropyrrolo[3,4-c]pyrazol-2(4H)-yl}-2-methylpropan-2-ol]
11 nM | N[C@H]1C[C@@H](N2Cc3cn(CCO)nc3C2)CO[C@@H]1c1cc(F)ccc1F [Example 4, 2-{5-[(3R,5S,6R)-5-amino-6-(2,5-difluorophenyl)tetrahydro-2H-pyran-3-yl]-5,6-dihydropyrrolo[3,4-c]pyrazol-2(4H)-yl}ethanol]
4 nM | CC(C)(O)Cn1ncc2c1CN([C@H]1CO[C@H](c3cc(F)ccc3F)[C@@H](N)C1)C2 [Example 6, 1-{5-[(3R,5S,6R)-5-amino-6-(2,5-difluorophenyl)tetrahydro-2H-pyran-3-yl]-5,6-dihydropyrrolo-[3,4-c]pyrazol-1(4H)-yl}-2-methylpropan-2-ol]
7.4 nM | NC(=O)Cn1ncc2c1CN([C@H]1CO[C@H](c3cc(F)c(F)cc3F)[C@@H](N)C1)C2 [Example 9]
9.2 nM | CC(C)(O)Cn1ncc2c1CN([C@H]1CO[C@H](c3cc(F)c(F)cc3F)[C@@H](N)C1)C2 [Example 12]
7.5 nM | NC(=O)Cn1ncc2c1CN([C@H]1CO[C@H](c3cc(F)ccc3F)[C@@H](N)C1)C2 [Example 7]
9.4 nM | N[C@H]1C[C@@H](N2Cc3cn(CC(=O)O)nc3C2)CO[C@@H]1c1cc(F)ccc1F [Example 3, {5-[(3R,5S,6R)-5-amino-6-(2,5-difluorophenyl)tetrahydro-2H-pyran-3-yl]-5,6-dihydropyrrolo[3,4-c]pyrazol-2(4H)-yl}acetic acid hydrochloride salt]
8.1 nM | COC(=O)Cn1cc2c(n1)CN([C@H]1CO[C@H](c3cc(F)ccc3F)[C@@H](N)C1)C2 [Example 2, Methyl {5-[(3R,5S,6R)-5-amino-6-(2,5-difluorophenyl)tetrahydro-2H-pyran-3-yl]-5,6-dihydropyrrolo[3,4-c]pyrazol-2(4B)-yl}acetate]
8.9 nM | NC(=O)Cn1cc2c(n1)CN([C@H]1CO[C@H](c3cc(F)c(F)cc3F)[C@@H](N)C1)C2 [Example 8]
6.8 nM | NC(=O)Cn1cc2c(n1)CN([C@H]1CO[C@H](c3cc(F)ccc3F)[C@@H](N)C1)C2 [Example 1, 2-{5-[(3R,5S,6R)-5-amino-6-(2,5-difluorophenyl)tetrahydro-2H-pyran-3-yl]-5,6-dihydropyrrolo[3,4-c]pyrazol-2(4H)-yl}acetamide]
0.89 nM | N#Cc1[nH]nc2c1CN([C@H]1CO[C@H](c3cc(F)ccc3F)[C@@H](N)C1)C2 [Example 13]
0.6 nM | N[C@H]1C[C@@H](N2Cc3n[nH]c(-c4nnn[nH]4)c3C2)CO[C@@H]1c1cc(F)ccc1F [Example 14]

tested on: hematopoiesis; assay: not given; details: mouse, cyclophosphamide-induced neutropenia; WO 99/56753; cited from earlier work

Compound | hematopoiesis
CC(C)[C@H](N)C(=O)N1CCC[C@H]1B(O)O [Val-Boro-Pro] | stimulated hematopoiesis

tested on: cardiac allograft survival; assay: not given; details: rats; survival from day 7 to day 14; Transplantation 63:1495-1500 (1997); cited from earlier work

Compound | cardiac allograft survival
CC(C)N1CCC(c2ccccc2)(c2ccccc2)CC1 [Prodipine, Pro-Pro-diphenyl-phosphonate] | double cardiac allograft survival

Source: patent US8455533B2, “Aminotetrahydropyrans as dipeptidyl peptidase-IV inhibitors for the treatment or prevention of diabetes” (Merck Sharp & Dohme Corp., priority 2009, dated 2013)
